In US12173088B2, “Anti-microbial peptides” (priority 2018, dated 2024):
Converted amounts (≈) assume the structure as drawn. Where two headings read alike, the source gives them in different places. Square brackets hold non-standard residues; d marks the D form. Peptide text beside a SMILES is read from it.

How the values were obtained:
S. aureus M838-17 (MRSA) = test: microbe, parasite or virus in culture; format: cell-based, Staphylococcus aureus; details: M838-17; for MIC: read-out: MIC S. aureus M838-17 (MRSA)
Method in brief: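 Peptides were serially diluted two-fold against bacteria grown in tryptic soy broth to log phase (OD600 ≈0.5), then seeded at OD600 0.001. Plates were held overnight at 37° C and read at 630 nm. USA300 was also tested at pH 6.8, 7.2 and 8.0, with 150 mM NaCl or 5-10% serum, plasma or peritoneal fluid.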

S. aureus USA300 = test: microbe, parasite or virus in culture; format: cell-based, Staphylococcus aureus
Method in brief: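 Broth microdilution: log-phase cultures in tryptic soy broth diluted to OD600 0.001, exposed to two-fold diluted peptides at 37° C overnight, growth read at 630 nm. Medium effects on S. aureus USA300 tested with up to 200 mM NaCl, 2 mM CaCl2, 5-10% human serum, mouse plasma, fluids or tissue homogenate supernatants.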

E. coli ATCC 25922 = format: cell-based, Escherichia coli; details: ATCC 25922
Method in brief: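 Peptides, serially diluted two-fold, were incubated overnight at 37 °C with E. coli ATCC 25922 from log-phase cultures adjusted to OD600 0.001. Turbidity at 630 nm served as the read-out in this broth microdilution format.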

K. pneumoniae ATCC 13883 = format: cell-based, Klebsiella pneumoniae; details: ATCC 13883
Method in brief: (§1)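 Broth microdilution in tryptic soy broth: log-phase cultures (OD600 ≈0.5) diluted to OD600 0.001, given two-fold peptide dilutions, incubated overnight at 37° C. Growth read at 630 nm.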

Hemolytic assay = format: cell-based, human; details: human, human red blood cells, 2% (v/v)
Method in brief: (§2)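 HL50 marks the peptide level lysing half of a 2% (v/v) suspension of washed human erythrocytes after 1 h at 37 °C. Released hemoglobin measured at 545 nm, scaled between PBS (0%) and Triton X-100 (2% or 1%; 100%). Selectivity index computed as HL50 over MIC.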

E. faecium V286-17 (VRE) = test: microbe, parasite or virus in culture; format: cell-based, Enterococcus faecium; details: V286-17 (VRE)
Description: (§3) The bacterial strains used include the Gram-positive strains Staphylococcus aureus USA300 LAC, S. epidermidis 1457, and Bacillus subtilis 168, as well as the Gram-negative isolates Escherichia coli K12 and Acinetobacter baumannii B2367-12. Additional, drug resistance strains include Gram-positive Enterococcus faecium V286-17 (VRE) and S. aureus M838-17 (MRSA) and Gram-negative E. coli E423-17, E. coli E416-17 (ampC), and P. aeruginosa E411-17. Bacteria were cultivated in tryptic soy broth (TSB) (BD Bioscience, MD).
(§4) The antibacterial activity of peptides was evaluated using a standard broth microdilution protocol with minor modifications as described (Mishra, et al. (2012) J. Am. Chem. Soc., 134:12426-12429). In brief, logarithmic phase bacterial cultures (i.e., optical density at 600 nm≈0.5) were diluted to OD600 0.001 and partitioned into a 96-well polystyrene microplate at 90 μL per well. After treatment with 10 μL of peptide solutions two fold diluted to various concentrations, microplates were incubated at 37° C. overnight and read on a ChroMate® 4300 Microplate Reader at 630 nm (GMI, Ramsey, MN). […] To study the influence of medium conditions on the antimicrobial activity of peptides against S. aureus USA300, up to 200 mM sodium chloride (NaCl), 2 mM of calcium chloride, 5-10% of human serum, mouse plasma, fluid, or supernatants of tissue homogenates were included into the assays.
(§5) The bacterial strains used include the Gram-positive bacteria methicillin-resistant Staphylococcus aureus USA300, Enterococcus faecium V286-17 (VRE), S. aureus M838-17 (MRSA) and Gram-negative bacteria E. coli E423-17, E416-7 (ampC), P. aeruginosa E411-17, PA01, K. pneumoniae E406-17, ATCC13883, and A. baumannii B26-16. Bacteria were cultivated in tryptic soy broth (TSB) from BD Bioscience.
(§6) The antibacterial activity of peptides was evaluated using a standard broth microdilution protocol with minor modifications (Mishra, et al. (2017) Acta Biomater., 49:316-328). In brief, logarithmic phase bacterial cultures (i.e., optical density at 600 nm≈0.5) were diluted to 0.001 OD and aliquoted 90 μL per well into a 96-well polystyrene microplate. Added 10 μL peptides per well with various concentrations, plates were incubated at 37° C., overnight. Post incubation the plates are read at 630 nm using a ChroMate® Microplate Reader (GMI). […] To study the influence of medium conditions on the antimicrobial activity of peptides against S. aureus USA300 at different pHs (6.8, 7.2, and 8.0), 150 mM sodium chloride (NaCl), 5-10% of human serum, mouse plasma, and peritoneal fluid were included into the assays.

P. aeruginosa E411-17 = test: microbe, parasite or virus in culture; format: cell-based, Pseudomonas aeruginosa; details: E411-17; for MIC: read-out: MIC P. aeruginosa E411-17
Description: as §3, §4, §5, §6

K. pneumoniae E406-17 = test: microbe, parasite or virus in culture; format: cell-based, Klebsiella pneumoniae; details: E406-17; for MIC: read-out: MIC K. pneumoniae E406-17
Experimental: as §4, §5, §6

E. coli E423-17 = test: microbe, parasite or virus in culture; format: cell-based, Escherichia coli; details: E423-17; read-out: MIC E. coli E423-17
Description: as §3, §4, §5, §6

A. baumannii B26-16 = test: microbe, parasite or virus in culture; format: cell-based, Acinetobacter baumannii; details: B26-16; read-out: MIC A. baumannii B26-16
Experimental: as §5, §6

P. aeruginosa PAO1 = format: cell-based, Pseudomonas aeruginosa; details: PAO1
Method in brief: as §1

[1] = tested on: human red blood cells (hRBCs); test: Hemolytic assay; format: cell-based
Method in brief: as §2

E. coli ampC E416-7 = format: cell-based, Escherichia coli; details: Table 7
Description: as §3, §4

Row | SMILES | HC50 at 1 h (Hemolytic assay) [µM] | MIC (P. aeruginosa E411-17) [µM] | MIC (K. pneumoniae E406-17) [µM] | MIC (E. coli E423-17) [µM] | MIC (S. aureus M838-17 (MRSA)) [µM] | MIC (S. aureus USA300; 1 mM Ca2+) [µM] | MIC (S. aureus USA300; 2 mM Ca2+) [µM] | MIC (S. aureus USA300; 50 mM NaCl) [µM] | MIC (S. aureus USA300; 100 mM NaCl) [µM] | MIC (S. aureus USA300; No salts added, Table 6, by UV) [µM] | MIC (S. aureus USA300; USA300) [µM] | MIC SA (S. aureus USA300) (S. aureus USA300; USA300) [µM] | MIC (S. aureus USA300; USA300, pH 6.8) [µM] | MIC (S. aureus USA300; USA300, pH 7.4) [µM] | MIC (S. aureus USA300; USA300, pH 8) [µM] | MIC PA (P. aeruginosa PAO1) (P. aeruginosa PAO1) [µM] | MIC EC (E. coli ATCC 25922) (E. coli ATCC 25922) [µM] | MIC E. faecium V286-17 (VRE) (E. faecium V286-17 (VRE)) [µM] | MIC E. coli ampC E416-7 (E. coli ampC E416-7) [µM] | further results
1 | CC[C@H](C)[C@H](NC(=O)[C@H](CCCCN)NC(=O)[C@@H](N)CCCNC(=N)N)C(=O)N[C@@H](Cc1c[nH]c2ccccc12)C(=O)N[C@@H](Cc1c[nH]c2ccccc12)C(=O)N[C@@H](Cc1c[nH]c2ccccc12)C(=O)N[C@@H](Cc1c[nH]c2ccccc12)C(=O)N[C@@H](CC(C)C)C(N)=O [WW295, RKIWWWWL] (H-RKIWWWWL-NH2; N-terminus and C-terminus assumed) | 57 | 32 (≈ 40.7 µg/mL) | 16 (≈ 20.4 µg/mL) | 8 (≈ 10.2 µg/mL) |  |  |  |  |  |  |  |  |  |  |  |  |  |  |  | MIC S. aureus M838-17 (S. aureus M838-17 (MRSA)): 6.2 to 12.5 µM; MIC S. aureus USA 300 (S. aureus USA300; USA300): 3.1 to 6.2 µM; MIC (S. aureus USA300; USA300, read-out: MIC S. aureus USA300 (MRSA)): 4 µM (≈ 5.09 µg/mL); MIC E. coli ATCC 25922 (E. coli ATCC 25922): 6.2 µM (≈ 7.89 µg/mL); MIC K. pneumoniae ATCC 13883 (K. pneumoniae ATCC 13883): 3.1 to 6.2 µM; MIC (E. faecium V286-17 (VRE); read-out: MIC E. faecium V286-17 (VRE)): 4 µM (≈ 5.09 µg/mL); MIC P. aeruginosa 411-17 (P. aeruginosa E411-17): >50 µM; MIC K. pneumonia 406-17 (K. pneumoniae E406-17): 12.5 µM (≈ 15.9 µg/mL); MIC (A. baumannii B26-16): 8 µM (≈ 10.2 µg/mL)
2 | CC(C)C[C@H](NC(=O)[C@H](CC(C)C)NC(=O)[C@H](CCCCN)NC(=O)[C@H](CC(C)C)NC(=O)CNC(=O)[C@H](CC(C)C)NC(=O)[C@H](CO)NC(=O)[C@H](CC(C)C)NC(=O)[C@H](CC(C)C)NC(=O)[C@H](CC(C)C)NC(=O)[C@H](CO)NC(=O)[C@H](CC(C)C)NC(=O)CN)C(N)=O [DFT503, GLSLLLSLGLKLL] (H-GLSLLLSLGLKLL-NH2; N-terminus and C-terminus assumed) | > 300 | >50 | >50 | >50 | 3.1 (≈ 4.15 µg/mL) | 1.56 (≈ 2.09 µg/mL) | 1.56 (≈ 2.09 µg/mL) | 1.56 to 3.1 | 1.56 to 3.1 | 1.56 | 3.1 (≈ 4.15 µg/mL) | 1.6 (≈ 2.14 µg/mL) | 3.1 (≈ 4.15 µg/mL) | 3.1 to 6.2 | 3.1 (≈ 4.15 µg/mL) | >25 | >25 | 3.1 to 6.25 | >50 | HL50, peptide concentration for 50% hemolysis [1]: >300 µM
3 | CC(C)C[C@@H](NC(=O)[C@@H](CC(C)C)NC(=O)[C@@H](CCCCN)NC(=O)[C@@H](CC(C)C)NC(=O)CNC(=O)[C@@H](CC(C)C)NC(=O)[C@@H](CO)NC(=O)[C@@H](CC(C)C)NC(=O)[C@@H](CC(C)C)NC(=O)[C@@H](CC(C)C)NC(=O)[C@@H](CO)NC(=O)[C@@H](CC(C)C)NC(=O)CN)C(N)=O [DFT503d, GLSLLLSLGLKLL] (H-G[dL][dS][dL][dL][dL][dS][dL]G[dL][dK][dL][dL]-NH2; N-terminus and C-terminus assumed) | > 300 | >50 | >50 | >50 | 3.1 (≈ 4.15 µg/mL) | 1.56 (≈ 2.09 µg/mL) | 1.56 (≈ 2.09 µg/mL) | 1.56 (≈ 2.09 µg/mL) | 1.56 (≈ 2.09 µg/mL) | 1.56 | 3.1 (≈ 4.15 µg/mL) | 1.6 (≈ 2.14 µg/mL) | 3.1 (≈ 4.15 µg/mL) | 3.1 (≈ 4.15 µg/mL) | 1.6 (≈ 2.14 µg/mL) | >25 | >25 | 3.1 to 6.25 | >50 | MIC (S. aureus USA300; 200 mM NaCl): 1.56 µM (≈ 2.09 µg/mL)
